Experimental findings from patent US5258406A, “Sulfonimidamides” (priority 1992, dated 1993) are described below.

Several values for one entry are separate records, joined by “and”; a condition that tells them apart may be missing. Identical values can stand only once. Like-named read-outs stand apart in the source and are kept apart here.

In this data set the test system is 6C3HED lymphosarcoma. The data set is described as follows: animal or person. It is filed as in vivo. To be noted: for inhibition in vivo at 100 mg/kg: read-out: % inhibition of tumor growth, oral, 100 mg/kg, BIDX 8; for inhibition in vivo at 75 mg/kg: read-out: % inhibition of tumor growth, oral, 75 mg/kg, BIDX 8. As for the experimental part:
The compounds were tested in C3H mice bearing a 6C3HED lymphosarcoma, also known as the Gardner lymphosarcoma (GLS), and in a variety of human tumor xenografts in CD1 nu/nu mice, including CX-1, LX-1, HXGC3, and VRC5. The 6C3HED lymphosarcoma was obtained from the Division of Cancer Treatment, National […] Institute, Tumor Bank, maintained at E. G. and G. Mason Research (Worcester, Mass.). The CX-1 human colon carcinoma and the LX-1 human lung carcinoma xenografts were obtained from the National Cancer Institute. The HXGC3 and VRC5 human colon xenografts were obtained from Dr. P. J. Houghton, St. Jude Children's Hospital in Memphis (see Br. J. Cancer, 37, 213 (1978)). First passage tumor was stored in liquid nitrogen using standard techniques. The transplanted tumor was reestablished from the Tumor Bank every six months or as needed. The tumor was maintained by serial passage twice weekly in C3H mice.
In the procedure the tumor was removed from passage animals and minced into 1- to 3-mm square fragments using sterile techniques. Tumor pieces were checked for sterility using both Antibiotic Medium 1 and Brain Heart Infusion (Difco, Detroit, Mich.). Recipient mice were shaved and tumor pieces were implanted subcutaneously in the auxiliary region by trocar. Drug therapy on the appropriate schedule was initiated on the day after tumor implant for 6C3HED and after a seven (7) day delay for xenografts (or other delay as noted in Table 2). The compound being tested was mixed with 2.5% Emulphor EL620 from GAF Corporation (1:40 dilution in saline). Food and water were provided ad libitium. The drug was administered orally in 0.5 ml of 2.5% Emulphor (unless otherwise indicated). The tumor was measured the day after treatment ended with two dimensional measurements (width and length) of the tumor taken using automated digital calipers interfaced to a microcomputer. Approximate weight for the tumor was calculated using the following formula [Worzalla, J. F., et al., Invest. New Drugs, 8, 241 (1990], (tumor weight in mg)=(width in mm)^2 ×(length in mm)/2.
At least one control group of an equal number of mice was treated with the same volume of 2.5% Emulphor only. The percent inhibition was determined by subtracting the ratio of the mean tumor size of the test group relative to the control group from one and multiplying the result times 100.
The results of several experiments in mice bearing a 6C3HED lymphosarcoma (or other tumor where indicated) when the indicated compounds were administered are provided in Table 2. In Table 2, column 1 gives the Example number of the compound used, column 2 lists the dose level in mg/kg, column 3 provides the percent inhibition of tumor growth, column 4 gives the number of mice which died relative to the total number of animals in the group, column 5 gives the method of administration of the compound, and column 6 gives the dosage schedule. The protocol used with other tumors was the same as with the 6C3HED lymphosarcoma.

Setting [1] is: Mus musculus, 6C3HED, po, read-out: % inhibition of tumor growth, oral, 150 mg/kg, BIDX 8.
Setting [2] is: Mus musculus, 6C3HED, po, read-out: % inhibition of tumor growth, oral, 300 mg/kg, BIDX 8.
The mark [3] stands for this setting: Mus musculus, 6C3HED, ip, read-out: % inhibition of tumor growth, IP, 150 mg/kg, DX 8.
Setting [4] is: Mus musculus, 6C3HED, ip, read-out: % inhibition of tumor growth, IP, 300 mg/kg, DX 8.
[5] abbreviates: Mus musculus, 6C3HED, po, read-out: % inhibition of tumor growth, oral, 25 mg/kg, BIDX 8.
[6] abbreviates: Mus musculus, 6C3HED, po, read-out: % inhibition of tumor growth, oral, 50 mg/kg, BIDX 8.

For `Cc1ccc(S(=N)(=O)NC(=O)Nc2ccc(Br)cc2)cc1` (centres unmarked) [Example 22, N-[[(4-bromophenyl)amino]carbonyl]-4-methylbenzenesulfonimidamide], under setting [1], the inhibition in vivo at 150 mg/kg was 100%. The inhibition in vivo at 300 mg/kg under setting [2] was determined as 100%. Moreover, the “Tox/Tot (mice which died / total)” value is, setting by setting: (oral, 150 mg/kg, BIDX 8) 0/10; (oral, 300 mg/kg, BIDX 8) 3/10.
On to `Cc1ccc(NC(=O)N=S(N)(=O)c2ccc(C)cc2)cc1` (centres unmarked) [Example 24], for which the “Tox/Tot (mice which died / total)” value is given as 0/10 (IP, 150 mg/kg, DX 8); 0/10 (IP, 300 mg/kg, DX 8); 0/10 (oral, 150 mg/kg, DX 8); 0/10 (oral, 300 mg/kg, DX 8). Also, the inhibition in vivo at 150 mg/kg is, setting by setting: under setting [3], 31%; (Mus musculus, 6C3HED, po, read-out: % inhibition of tumor growth, oral, 150 mg/kg, DX 8) 10%. For the same compound, the inhibition in vivo at 300 mg/kg is, setting by setting: under setting [4], 52%; (Mus musculus, 6C3HED, po, read-out: % inhibition of tumor growth, oral, 300 mg/kg, DX 8) 40%.
Turning to `NS(=O)(=NC(=O)Nc1ccc(Cl)cc1)c1ccc(Cl)cc1` (centres unmarked) [Example 27], the inhibition in vivo at 25 mg/kg under setting [5] is 39%. In addition, under setting [6], the inhibition in vivo at 50 mg/kg was 80%. Under “Mus musculus, 6C3HED, po”, the inhibition in vivo at 100 mg/kg was found to be 100%. In addition, the “Tox/Tot (mice which died / total)” value runs as follows: (oral, 25 mg/kg, BIDX 8) 0/10; (oral, 50 mg/kg, BIDX 8) 0/10; (oral, 200 mg/kg, BIDX 8) 10/10. Besides, the “% inhibition of tumor growth” value was 94% (oral, 100 mg/kg, BIDX 8) and “TOX” (oral, 200 mg/kg, BIDX 8).
For `NS(=O)(=NC(=O)Nc1ccc(Cl)cc1)c1ccc(Br)cc1` (centres unmarked) [Example 30], the inhibition in vivo at 9 mg/kg (Mus musculus, 6C3HED, po, read-out: % inhibition of tumor growth, oral, 9.00 mg/kg, BIDX 8) is 4%. The inhibition in vivo at 18.75 mg/kg (Mus musculus, 6C3HED, po, read-out: % inhibition of tumor growth, oral, 18.75 mg/kg, BIDX 8) was 19%. Moreover, the inhibition in vivo at 37.5 mg/kg (Mus musculus, 6C3HED, po, read-out: % inhibition of tumor growth, oral, 37.5 mg/kg, BIDX 8) stood at 42%. The inhibition in vivo at 50 mg/kg under setting [6] stood at 55%. Also, the inhibition in vivo at 75 mg/kg (Mus musculus, 6C3HED, po) is 67%. Also, under setting [1], the inhibition in vivo at 150 mg/kg was 99%. For the same compound, the “Tox/Tot (mice which died / total)” value by setting is: (oral, 9.00 mg/kg, BIDX 8) 0/10; (oral, 18.75 mg/kg, BIDX 8) 1/10; (oral, 37.5 mg/kg, BIDX 8) 1/10; (oral, 50 mg/kg, BIDX 8) 0/10; (oral, 75 mg/kg, BIDX 8) 0/10; (oral, 150 mg/kg, BIDX 8) 3/10 and 1/10. Moreover, the “Tox/Tot (mice which died / total)” value (oral, 300 mg/kg, BIDX 8) is on record as 10/10. Moreover, the “% inhibition of tumor growth” value is 89% (oral, 150 mg/kg, BIDX 8) and “TOX” (oral, 300 mg/kg, BIDX 8).
As for `CCc1ccc(S(=N)(=O)NC(=O)Nc2ccc(Cl)cc2)cc1` (centres unmarked) [Example 33, N-[[(4-chlorophenyl)amino]carbonyl]-4-ethylbenzenesulfonimidamide], where the note is “Mus musculus, 6C3HED, po, read-out: % inhibition of tumor growth, oral, 6.25 mg/kg, BIDX 8”, the inhibition in vivo at 6.25 mg/kg was found to be 36%. The inhibition in vivo at 12.5 mg/kg (Mus musculus, 6C3HED, po, read-out: % inhibition of tumor growth, oral, 12.5 mg/kg, BIDX 8) is 60%. For the same compound, under setting [5], the inhibition in vivo at 25 mg/kg came to 91%. For the same compound, the inhibition in vivo at 50 mg/kg under setting [6] was 98%. Moreover, the inhibition in vivo at 100 mg/kg (Mus musculus, 6C3HED, po) was found to be 99%. In addition, the inhibition in vivo at 150 mg/kg under setting [1] turned out to be 100%. Further, the inhibition in vivo at 300 mg/kg under setting [2] was 100%. The “Tox/Tot (mice which died / total)” value by setting is: (oral, 6.25 mg/kg, BIDX 8) 0/10; (oral, 12.5 mg/kg, BIDX 8) 0/9; (oral, 25 mg/kg, BIDX 8) 2/10; (oral, 50 mg/kg, BIDX 8) 1/10; (oral, 100 mg/kg, BIDX 8) 0/10; (oral, 150 mg/kg, BIDX 8) 8/10. Moreover, the “Tox/Tot (mice which died / total)” value (oral, 300 mg/kg, BIDX 8) is 8/10.
For `Cc1cc(C)cc(S(N)(=O)=NC(=O)Nc2ccc(Cl)cc2)c1` (centres unmarked) [Example 39], under “Mus musculus, 6C3HED, po”, the inhibition in vivo at 100 mg/kg stood at 44%. Further, where the note is “Mus musculus, 6C3HED, po, read-out: % inhibition of tumor growth, oral, 200 mg/kg, BIDX 8”, the inhibition in vivo at 200 mg/kg was found to be 77%. Also, the “Tox/Tot (mice which died / total)” value is given as 0/10 (oral, 100 mg/kg, BIDX 8) and 0/10 (oral, 200 mg/kg, BIDX 8).
Consider `CC(=O)OCc1ccc(S(=N)(=O)NC(=O)Nc2ccc(Cl)cc2)cc1` (centres unmarked) [Example 49, N-[[(4-chlorophenyl)amino]carbonyl]-4-(acetoxymethyl)benzenesulfonimidamide], for which the “Tox/Tot (mice which died / total)” value runs as follows: (IP, 12.5 mg/kg, DX 8) 0/10; (IP, 25 mg/kg, DX 8) 0/10; (IP, 50 mg/kg, DX 8) 1/10; (IP, 150 mg/kg, DX 8) 8/10; (IP, 300 mg/kg, DX 8) 10/10; (oral, 25 mg/kg, BIDX 8) 0/10. Moreover, the “Tox/Tot (mice which died / total)” value is recorded as 0/10 (oral, 50 mg/kg, BIDX 8); 0/10 (oral, 75 mg/kg, BIDX 8); 0/10 (oral, 150 mg/kg, BIDX 8); 3/10 (oral, 300 mg/kg, BIDX 8). Under “IP, 300 mg/kg, DX 8”, the “% inhibition of tumor growth” value is given as “TOX”. Besides, the inhibition in vivo at 12.5 mg/kg (Mus musculus, 6C3HED, ip, read-out: % inhibition of tumor growth, IP, 12.5 mg/kg, DX 8) was determined as 29%. The inhibition in vivo at 25 mg/kg runs as follows: (Mus musculus, 6C3HED, ip, read-out: % inhibition of tumor growth, IP, 25 mg/kg, DX 8) 36%; under setting [5], 64%. Besides, the inhibition in vivo at 50 mg/kg (Mus musculus, 6C3HED, ip, read-out: % inhibition of tumor growth, IP, 50 mg/kg, DX 8) worked out at 63% and the inhibition in vivo at 50 mg/kg under setting [6] stood at 87%. The inhibition in vivo at 150 mg/kg is, setting by setting: under setting [3], 99%; under setting [1], 99%. Further, the inhibition in vivo at 75 mg/kg (Mus musculus, 6C3HED, po) was 96%. The inhibition in vivo at 300 mg/kg under setting [2] was 100%.
Consider `N=S(=O)(NC(=O)Nc1ccc(Cl)cc1)c1ccc(C=O)cc1` (centres unmarked) [Example 51, N-[[(4-chlorophenyl)amino]carbonyl]-4-formylbenzenesulfonimidamide], for which the “Tox/Tot (mice which died / total)” value is on record as 0/10 (IP, 150 mg/kg, DX 8) and 9/10 (IP, 300 mg/kg, DX 8). Besides, under setting [3], the inhibition in vivo at 150 mg/kg stood at 80%. In addition, the inhibition in vivo at 300 mg/kg under setting [4] came to 99%.
